# Assay results reported in patent publication US20220184008A1, “MODULATORS OF INTRACELLULAR CHLORIDE CONCENTRATION” (FONDAZIONE ISTITUTO ITALIANO DI TECNOLOGIA, priority 2019, published 2022).
# Test system: Ts65Dn mice
# Experiment: Cognitive impairment tests in Ts65Dn mice (object location, object recognition, T-maze, fear conditioning)
# Type: in vivo
# Details: i.p. 0.2 mg/kg, one week; four cognitive tests
# Excerpt: FIG. 4: In vivo assessment of the efficacy of the selected NKCC1 inhibitor in Ts65Dn mice. (a) Quantification of the discrimination index in mice treated with vehicle (WT, n=14, Ts65Dn, n=10;) or 3.17 (WT, n=14, Ts65Dn, n=11;) ***P<0.001; two-way ANOVA Tukey's post hoc test. (b) Quantification of the discrimination index in mice treated with vehicle (WT, n=14, Ts65Dn, n=10;) or 3.17 (WT, n=14, Ts65Dn, n=11) *P<0.05, **P<0.01 two-way ANOVA Tukey's post hoc test. (c) Quantification of the correct choices in mice treated with vehicle (WT, n=14, Ts65Dn, n=10;) or 3.17 (WT, n=14, Ts65Dn, n=11;) ***P<0.001; two-way ANOVA Tukey's post hoc test. (d) Quantification of the freezing response in mice treated with vehicle (WT, n=14, Ts65Dn, n=10;) or 3.17 (WT, n=14, Ts65Dn, n=11;) *P<0.05, **P<0.01 two-way ANOVA Tukey's post hoc test.
# The efficacy of compound 3.17 in rescuing cognitive impairment in four different cognitive tests in Ts65Dn mice (FIG. 4) has been evaluated. Adult Ts65Dn mice and their WT littermates were treated (2 months old) for one week with 3.17 (i.p. 0.2 mg/kg) or its vehicle. For the following three weeks, the animals were tested in four different tasks assessing memory and cognition: a) novel object location task (Deidda, G. et al. Reversing excitatory GABAAR signaling restores synaptic plasticity and memory in a mouse model of Down syndrome. […]
smiles,measurement,value
"CN(C)S(=O)(=O)c1cc(C(=O)O)ccc1NCCCCCCCC(F)(F)F [Compound 3.17, 3-(dimethylsulfamoyl)-4-(8,8,8-trifluorooctylamino) benzoic acid]",cognitive performance of Ts65Dn mice,ameliorated
